Data published in PMC6300691, “Enhancement of Heat Stability and Kinetic Parameters of the Maize Endosperm ADP-Glucose Pyrophosphorylase by Mutagenesis of Amino Acids in the Small Subunit With High B Factors” (Frontiers in Plant Science, 2018).
Numbering of substitutions follows the chain as printed.

Tests used:
K403R [1] = molecular target: T1, K403R (Zea mays, UniProt P55241+Q947C0, K403R); experiment: Activation constant from initial rates with varied 3-PGA (0-1 mM) at 2 mM ATP and 2 mM G-1-P, pH 7.4, 15 mM MgCl2, fitted to V = Vmin + Vmax*X/(Ka + X).; format: biochemical; parameters: BT2 variant with wild type SH2, E. coli, purified
From the text: All reactions were developed as above.

wt (SH2-WT/BT2-WT) [2] = molecular target: T2, wt (SH2-WT/BT2-WT) (Zea mays, UniProt P55241+Q947C0)
Method: All reactions were developed as above. The activation constant was fitted to the following equation, V = Vmin + Vmax^∗X/(Ka + X), since several enzymes had appreciable activity in the absence of activator. Here, Vmin is the velocity in the absence of activator and Vmax is the change in activity from Vmin to the total velocity, X is the activator concentration, Ka is the activation constant. All linear regressions were carried out using the software program Prism (GraphPad, San Diego, CA, United States).

SH2-ISM/BT2-BF [3] = molecular target: T3, SH2-ISM/BT2-BF (Zea mays, UniProt P55241+Q947C0, Q96G/E123G/D161G/R331K/K402R/A443R); experiment: Initial-rate assay without 3-PGA, ATP and G-1-P both varied (0.01-10 mM and 0.1-25 mM), global fit to a sequential mechanism.; format: biochemical; conditions: read-out: ATP Km (absence of 3-PGA)
T3 construct: SH2-ISM co-expressed with BT2-BF, E. coli, purified
T3 sequence (Q947C0 1-475 E123G/R331K/K402R): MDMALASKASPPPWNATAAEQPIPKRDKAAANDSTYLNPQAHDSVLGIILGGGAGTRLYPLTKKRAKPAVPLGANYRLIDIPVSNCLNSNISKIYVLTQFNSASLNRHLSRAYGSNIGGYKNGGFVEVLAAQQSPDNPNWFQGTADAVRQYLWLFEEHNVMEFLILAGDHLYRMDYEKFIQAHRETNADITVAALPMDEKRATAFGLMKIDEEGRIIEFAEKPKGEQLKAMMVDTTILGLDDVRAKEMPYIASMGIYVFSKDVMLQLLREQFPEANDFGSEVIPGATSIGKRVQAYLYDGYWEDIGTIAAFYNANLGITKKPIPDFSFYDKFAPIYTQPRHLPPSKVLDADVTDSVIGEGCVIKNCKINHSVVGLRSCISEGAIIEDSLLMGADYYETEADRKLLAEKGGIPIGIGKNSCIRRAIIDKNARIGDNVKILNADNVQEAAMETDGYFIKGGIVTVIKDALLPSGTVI
T3 sequence (P55241 46-516 Q96G/D161G/A443R): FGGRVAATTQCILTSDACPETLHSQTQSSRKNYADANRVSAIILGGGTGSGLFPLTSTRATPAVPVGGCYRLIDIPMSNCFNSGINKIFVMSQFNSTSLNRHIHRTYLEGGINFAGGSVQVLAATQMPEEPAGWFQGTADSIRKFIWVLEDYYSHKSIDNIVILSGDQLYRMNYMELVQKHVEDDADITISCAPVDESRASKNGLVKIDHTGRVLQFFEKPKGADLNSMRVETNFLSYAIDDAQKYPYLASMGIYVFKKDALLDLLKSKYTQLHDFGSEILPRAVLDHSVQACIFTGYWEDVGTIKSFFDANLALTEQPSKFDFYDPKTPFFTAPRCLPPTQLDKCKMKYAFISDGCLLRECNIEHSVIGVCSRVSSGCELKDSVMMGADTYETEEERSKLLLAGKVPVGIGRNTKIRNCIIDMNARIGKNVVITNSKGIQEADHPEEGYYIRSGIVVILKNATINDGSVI
From the text: Activity in the absence of the activator 3PGA was examined. While 3PGA is a noted activator for plant AGPase, the mechanism of activation differs for the various AGPases. […] Thus, the term “activation fold” in the literature is merely an activity reported at single fixed substrate concentrations.
The small subunit mutant, MP, contains the first 198 amino acids of the small subunit of the maize endosperm enzyme and the last 277 amino acids from the potato tuber enzyme resulting in thirty-three amino acid sites that differ from the maize endosperm enzyme ([Cross et al., 2004]).

SH2-ISM/BT2-BF [4] = molecular target: T3, SH2-ISM/BT2-BF; experiment: Pi inhibition study without 3-PGA, ATP varied (0.1-3 mM) at fixed Pi levels (10-30 mM) and sub-saturating G-1-P (1 mM), fit to mixed-type inhibition equations.; format: biochemical; conditions: read-out: Km (mM), varied substrate ATP, Pi inhibition in the absence of 3-PGA
Method: (§2) Pi inhibition was carried out in both the presence and absence of 3-PGA with the Pi and substrate concentrations listed below.
A large α value indicates competitive inhibition whereby the inhibitor prevents binding of the substrate. If the inhibitor enhances the binding of the substrate, α is very small, and the model reduces to an uncompetitive model. […] Special cases include pure non-competitive inhibition, where α = 1 and β = 0 and partial non-competitive inhibition whereby α = 1 and 0 < β < 1.
(§3) Pi inhibition patterns in the presence and absence of 3PGA were also determined. Pi inhibition patterns were obtained by varying one substrate at several fixed concentrations of Pi, while holding the co-substrate at constant sub-saturating levels.

K403R [5] = molecular target: T1, K403R; conditions: read-out: KM ATP
From the text: (§1) All V versus S plots were fitted using non-linear regression analysis and the following equation, v = VmaxS/(Km + S), where v is the measured velocity, Vmax is the maximum velocity, S is the substrate concentration.

wt (SH2-WT/BT2-WT) [6] = molecular target: T2, wt (SH2-WT/BT2-WT); conditions: read-out: KM ATP
From the text: as §1

[7] = molecular target: T4, E123G, R331K, K402R (BT2-BF) (Zea mays, UniProt P55241+Q947C0, E123G/R331K/K402R); experiment: Pi inhibition study without 3-PGA, ATP varied (0.1-3 mM) at fixed Pi levels (10-30 mM) and sub-saturating G-1-P (1 mM), fit to mixed-type inhibition equations.; format: biochemical; conditions: read-out: Km (mM), varied substrate ATP, Pi inhibition in the absence of 3-PGA
T4 construct: BT2-BF with wild type SH2 (SH2-WT/BT2-BF), E. coli, purified
T4 sequence (Q947C0 1-475 E123G/R331K/K402R): T3 sequence (Q947C0 1-475 E123G/R331K/K402R)
T4 sequence (P55241 46-516): T3 sequence (P55241 46-516 Q96G/D161G/A443R) with G51Q, G116D, R398A
Method: as §2, §3

T2 sequence (Q947C0 1-475): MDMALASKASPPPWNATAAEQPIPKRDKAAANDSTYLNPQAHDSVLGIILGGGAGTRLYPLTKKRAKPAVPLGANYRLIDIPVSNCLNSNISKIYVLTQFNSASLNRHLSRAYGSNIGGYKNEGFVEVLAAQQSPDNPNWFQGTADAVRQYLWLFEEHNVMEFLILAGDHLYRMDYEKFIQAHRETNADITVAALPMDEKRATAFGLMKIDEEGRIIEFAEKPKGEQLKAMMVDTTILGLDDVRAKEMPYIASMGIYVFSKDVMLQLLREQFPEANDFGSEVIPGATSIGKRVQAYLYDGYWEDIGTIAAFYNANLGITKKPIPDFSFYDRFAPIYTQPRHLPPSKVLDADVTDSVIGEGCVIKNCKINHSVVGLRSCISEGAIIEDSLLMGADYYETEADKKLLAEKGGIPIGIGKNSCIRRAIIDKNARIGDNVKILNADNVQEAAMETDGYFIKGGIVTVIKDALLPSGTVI
T2 sequence (P55241 46-516): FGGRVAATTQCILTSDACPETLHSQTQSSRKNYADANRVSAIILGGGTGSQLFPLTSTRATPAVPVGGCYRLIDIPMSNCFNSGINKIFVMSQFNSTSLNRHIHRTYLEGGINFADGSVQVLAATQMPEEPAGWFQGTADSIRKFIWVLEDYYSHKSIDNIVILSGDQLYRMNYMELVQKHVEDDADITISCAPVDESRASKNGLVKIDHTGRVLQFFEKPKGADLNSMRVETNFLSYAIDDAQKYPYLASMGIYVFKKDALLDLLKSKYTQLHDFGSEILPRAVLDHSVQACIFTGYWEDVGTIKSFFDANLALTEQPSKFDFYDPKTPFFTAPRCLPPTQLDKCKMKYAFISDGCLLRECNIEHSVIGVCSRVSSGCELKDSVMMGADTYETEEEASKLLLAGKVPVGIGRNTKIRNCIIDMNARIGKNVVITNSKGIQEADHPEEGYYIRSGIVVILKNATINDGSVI
T1 sequence (Q947C0 1-475 K403R): as the sequence (Q947C0 1-475) above, with K403R counted along it

In the case of O=C(O)[C@H](O)COP(=O)(O)O [3-PGA, 3-phosphoglycerate (3-phosphoglyceric acid)], the “3-PGA Ka (activation constant)” value (K403R [1]) is reported as 0.22 ± 0.057 and the “3-PGA Ka (activation constant)” value (wt (SH2-WT/BT2-WT) [2]) is reported as 0.26 ± 0.061.
Work on Nc1ncnc2c1ncn2[C@@H]1O[C@H](COP(=O)(O)OP(=O)(O)OP(=O)(O)O)[C@@H](O)[C@H]1O [ATP, adenosine 5'-triphosphate] yielded a Km (SH2-ISM/BT2-BF [3]) of 510 ± 100 µM, a Km (SH2-ISM/BT2-BF [4]) of 3.6 ± 1.63 mM and a Km (K403R [5]) of 75 ± 13 µM. It also gave a Km (wt (SH2-WT/BT2-WT) [6]) of 75 ± 18 µM and a Km [7] of 0.79 ± 0.075 mM.
